Target: T1, Human OTUB1 wild-type (Homo sapiens, UniProt Q96FW1)
T1 construct: His tag (N); made in house; host or cells: E. coli BL21-CodonPlus (DE3)-RIPIL
Experiment: Covalent modification of OTUB1 (adduct formation), mass spectrometry-based assay (OTUB1 covalent binders; selected CFTR or cGAS based bivalent compounds)
Assay type: binding
Conditions: covalent adduct formation with OTUB1 protein
In short: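 His-tagged human OTUB1 (10 μM), E. coli-expressed, incubated with compound (2500 μM) in 50 mM Tris-HCl pH 7.5, 150 mM NaCl, 0.5 mM TCEP for 1 h at room temperature. Adduct detected by intact-protein LC/ESI-TOF mass spectrometry after buffer exchange; duplicates.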

T1 sequence (Q96FW1 whole entry): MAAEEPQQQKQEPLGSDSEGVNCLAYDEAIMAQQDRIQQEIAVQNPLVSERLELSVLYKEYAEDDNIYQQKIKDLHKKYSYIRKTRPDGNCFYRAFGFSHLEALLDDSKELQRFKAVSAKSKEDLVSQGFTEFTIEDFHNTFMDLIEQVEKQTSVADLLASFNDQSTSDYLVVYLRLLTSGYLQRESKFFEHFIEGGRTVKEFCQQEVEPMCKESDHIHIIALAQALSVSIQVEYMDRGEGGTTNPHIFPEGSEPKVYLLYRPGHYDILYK

SMILES | % of OTUB1 modified
COCc1ccc(C(=O)N2CC3CC(C2)N3C(=O)/C=C/CN(C)C)s1 [XS190-138, (E)-4-(dimethylamino)-1-(3-(5-(methoxymethyl)thiophene-2-carbonyl)-3,6-diazabicyclo[3.1.1]heptan-6-yl)but-2-en-1-one] | 45%
CN(C)C/C=C/C(=O)N1C2CCC1C(=O)N(C1CCCC1)C2 (stereo not drawn) [XS190-144, (E)-3-cyclopentyl-8-(4-(dimethylamino)but-2-enoyl)-3,8-diazabicyclo[3.2.1]octan-2-one] | 80%
Cc1ccc(CN2CC3CC(C2)N3C(=O)/C=C/CN(C)C)s1 [XS190-158, (E)-4-(dimethylamino)-1-(3-((5-methylthiophen-2-yl)methyl)-3,6-diazabicyclo[3.1.1]heptan-6-yl)but-2-en-1-one] | 8%
CC1CCC(C(=O)N2CC3CC(C2)N3C(=O)/C=C/CN(C)C)C1 (stereo not drawn) [XS190-170, (E)-4-(dimethylamino)-1-(3-(3-methylcyclopentane-1-carbonyl)-3,6-diazabicyclo[3.1.1]heptan-6-yl)but-2-en-1-one] | 55%
CC(=O)N1CCC(C(=O)N2CC3CC(C2)N3C(=O)/C=C/CN(C)C)CC1 [XS197-6, (E)-1-(3-(1-acetylpiperidine-4-carbonyl)-3,6-diazabicyclo[3.1.1]heptan-6-yl)-4-(dimethylamino)but-2-en-1-one] | 22%
Cc1ccc(N2CC3CCC(C2=O)N3C(=O)/C=C/CN(C)C)[nH]1 (stereo not drawn) [XS197-14, (E)-8-(4-(dimethylamino)but-2-enoyl)-3-(5-methyl-1H-pyrrol-2-yl)-3,8-diazabicyclo[3.2.1]octan-2-one] | 85%
CN(C)C/C=C/C(=O)N1C2CC1CN(C(=O)C1CCC1)C2 [XS197-38, (E)-1-(3-(cyclobutanecarbonyl)-3,6-diazabicyclo[3.1.1]heptan-6-yl)-4-(dimethylamino)but-2-en-1-one] | 43%
CN(C)C/C=C/C(=O)N1C2CCC1C(=O)N(C1CCC1)C2 (stereo not drawn) [XS197-70, (E)-3-cyclobutyl-8-(4-(dimethylamino)but-2-enoyl)-3,8-diazabicyclo[3.2.1]octan-2-one] | 75%
CN(C)C/C=C/C(=O)N1C2CC1CN(C(=O)c1ccc(C3CCN(C)CC3)s1)C2 [XS197-74, (E)-4-(dimethylamino)-1-(3-(5-(1-methylpiperidin-4-yl)thiophene-2-carbonyl)-3,6-diazabicyclo[3.1.1]heptan-6-yl)but-2-en-1-one] | 92%
CC(=O)N1CC2(CC(C(=O)N3CC4CC(C3)N4C(=O)/C=C/CN(C)C)C2)C1 [XS197-133, (E)-1-(3-(2-acetyl-2-azaspiro[3.3]heptane-6-carbonyl)-3,6-diazabicyclo[3.1.1]heptan-6-yl)-4-(dimethylamino)but-2-en-1-one] | 25%
CC(=O)N1CCC(c2ccc(N3CC4CCC(C3=O)N4C(=O)/C=C/CN(C)C)s2)CC1 (stereo not drawn) [XS197-145, (E)-3-(5-(1-acetylpiperidin-4-yl)thiophen-2-yl)-8-(4-(dimethylamino)but-2-enoyl)-3,8-diazabicyclo[3.2.1]octan-2-one] | 90%
CC(=O)N1CCC2(CC1)CC(C(=O)N1CC3CC(C1)N3C(=O)/C=C/CN(C)C)C2 [XS197-176, (E)-1-(3-(7-acetyl-7-azaspiro[3.5]nonane-2-carbonyl)-3,6-diazabicyclo[3.1.1]heptan-6-yl)-4-(dimethylamino)but-2-en-1-one] | 30%
Cc1ccc(N2CC3CCC(C2=O)N3C(=O)C#CCN(C)C)s1 (stereo not drawn) [XS197-185, 8-(4-(dimethylamino)but-2-ynoyl)-3-(5-methylthiophen-2-yl)-3,8-diazabicyclo[3.2.1]octan-2-one] | 95%
Cc1ccc(NC(=O)C2(O)CN(C(=O)/C=C/CN(C)C)C2)s1 [XS209-22, (E)-1-(4-(dimethylamino)but-2-enoyl)-3-hydroxy-N-(5-methylthiophen-2-yl)azetidine-3-carboxamide] | 47%
Cc1ccc(C(=O)N2CC3CC(C2)N3C(=O)C#CCN(C)C)s1 [XS209-26, 4-(dimethylamino)-1-(3-(5-methylthiophene-2-carbonyl)-3,6-diazabicyclo[3.1.1]heptan-6-yl)but-2-yn-1-one] | 98%

Results, then the compound that gave them:

% of OTUB1 modified | SMILES
80% | Cc1ccc(C(=O)N2CC3CC(C2)N3C(=O)/C=C/CN(C)C)o1 [XS190-157, (E)-4-(dimethylamino)-1-(3-(5-methylfuran-2-carbonyl)-3,6-diazabicyclo[3.1.1]heptan-6-yl)but-2-en-1-one]
30% | Cc1cccc(N2CC3CCC(C2=O)N3C(=O)/C=C/CN(C)C)n1 (stereo not drawn) [XS190-181, (E)-8-(4-(dimethylamino)but-2-enoyl)-3-(6-methylpyridin-2-yl)-3,8-diazabicyclo[3.2.1]octan-2-one]
90% | Cc1cccc(N2CC3CCC(C2=O)N3C(=O)/C=C/CN(C)C)c1 (stereo not drawn) [XS190-182, (E)-8-(4-(dimethylamino)but-2-enoyl)-3-(m-tolyl)-3,8-diazabicyclo[3.2.1]octan-2-one]
95% | Cc1cnc(N2CC3CCC(C2=O)N3C(=O)/C=C/CN(C)C)s1 (stereo not drawn) [XS190-183, (E)-8-(4-(dimethylamino)but-2-enoyl)-3-(5-methylthiazol-2-yl)-3,8-diazabicyclo[3.2.1]octan-2-one]
70% | CC(=O)N1CC2CC(C1)N2C(=O)/C=C/CN(C)C [XS190-186, (E)-1-(3-acetyl-3,6-diazabicyclo[3.1.1]heptan-6-yl)-4-(dimethylamino)but-2-en-1-one]
75% | CN(C)C/C=C/C(=O)N1C2CCC1C(=O)N(C)C2 (stereo not drawn) [XS197-4, (E)-8-(4-(dimethylamino)but-2-enoyl)-3-methyl-3,8-diazabicyclo[3.2.1]octan-2-one]
75% | CN1CC2CCC(C1=O)N2C(=O)CCl (stereo not drawn) [XS197-29, 8-(2-chloroacetyl)-3-methyl-3,8-diazabicyclo[3.2.1]octan-2-one]
85% | CC(C)c1ccc(C(=O)N2CC3CC(C2)N3C(=O)/C=C/CN(C)C)s1 [XS197-49, (E)-4-(dimethylamino)-1-(3-(5-isopropylthiophene-2-carbonyl)-3,6-diazabicyclo[3.1.1]heptan-6-yl)but-2-en-1-one]
8% | CC(C)C(=O)N1CC2CC(C1)N2C(=O)/C=C/CN(C)C [XS197-50, (E)-4-(dimethylamino)-1-(3-isobutyryl-3,6-diazabicyclo[3.1.1]heptan-6-yl)but-2-en-1-one]
78% | CC(=O)N1CCC(c2ccc(C(=O)N3CC4CC(C3)N4C(=O)/C=C/CN(C)C)s2)C1 (stereo not drawn) [XS197-71, (E)-1-(3-(5-(1-acetylpyrrolidin-3-yl)thiophene-2-carbonyl)-3,6-diazabicyclo[3.1.1]heptan-6-yl)-4-(dimethylamino)but-2-en-1-one]
90% | CC(=O)N1CCC(c2ccc(C(=O)N3CC4CC(C3)N4C(=O)/C=C/CN(C)C)s2)CC1 [XS197-72, (E)-1-(3-(5-(1-acetylpiperidin-4-yl)thiophene-2-carbonyl)-3,6-diazabicyclo[3.1.1]heptan-6-yl)-4-(dimethylamino)but-2-en-1-one]
90% | CN(C)C/C=C/C(=O)N1C2CC1CN(C(=O)c1ccc(C3CCN(C)C3)s1)C2 (stereo not drawn) [XS197-73, (E)-4-(dimethylamino)-1-(3-(5-(1-methylpyrrolidin-3-yl)thiophene-2-carbonyl)-3,6-diazabicyclo[3.1.1]heptan-6-yl)but-2-en-1-one]
45% | CN(C)C/C=C/C(=O)N1C2CC1CN(C(=O)C1CN(C)C1)C2 [XS197-85, (E)-4-(dimethylamino)-1-(3-(1-methylazetidine-3-carbonyl)-3,6-diazabicyclo[3.1.1]heptan-6-yl)but-2-en-1-one]
80% | COCC#Cc1ccc(C(=O)N2CC3CC(C2)N3C(=O)/C=C/CN(C)C)s1 [XS197-93, (E)-4-(dimethylamino)-1-(3-(5-(3-methoxyprop-1-yn-1-yl)thiophene-2-carbonyl)-3,6-diazabicyclo[3.1.1]heptan-6-yl)but-2-en-1-one]
80% | CN(C)C/C=C/C(=O)N1C2CC1CN(C(=O)c1ccc(C#CCO)s1)C2 [XS197-94, (E)-4-(dimethylamino)-1-(3-(5-(3-hydroxyprop-1-yn-1-yl)thiophene-2-carbonyl)-3,6-diazabicyclo[3.1.1]heptan-6-yl)but-2-en-1-one]
45% | CC(=O)OCC#Cc1ccc(C(=O)N2CC3CC(C2)N3C(=O)/C=C/CN(C)C)s1 [XS197-96, (E)-3-(5-(6-(4-(dimethylamino)but-2-enoyl)-3,6-diazabicyclo[3.1.1]heptane-3-carbonyl)thiophen-2-yl)prop-2-yn-1-yl acetate]
15% | CN(C)C/C=C/C(=O)N1Cc2ccccc2C1 [XS197-186, (E)-4-(dimethylamino)-1-(isoindolin-2-yl)but-2-en-1-one]
22% | Cc1ccc(NC(=O)C2(C)CN(C(=O)/C=C/CN(C)C)C2)s1 [XS209-21, (E)-1-(4-(dimethylamino)but-2-enoyl)-3-methyl-N-(5-methylthiophen-2-yl)azetidine-3-carboxamide]
10% | Cc1cnc(NC(=O)C2(C)CN(C(=O)/C=C/CN(C)C)C2)o1 [XS209-23, (E)-1-(4-(dimethylamino)but-2-enoyl)-3-methyl-N-(5-methyloxazol-2-yl)azetidine-3-carboxamide]
5% | COc1ccc2c(c1)CN(C(=O)/C=C/CN(C)C)C2 [XS209-25, (E)-4-(dimethylamino)-1-(5-methoxyisoindolin-2-yl)but-2-en-1-one]
25% | CCC(=O)N1CC2CC(C1)N2C(=O)/C=C/CN(C)C [XS209-28, (E)-4-(dimethylamino)-1-(3-propionyl-3,6-diazabicyclo[3.1.1]heptan-6-yl)but-2-en-1-one]

From patent publication US20260315604A1, “OTUB1 Small-Molecule Binders and OTUB1-recruiting Deubiquitinase-targeting Chimeras (DUBTACs)” (ICAHN SCHOOL OF MEDICINE AT MOUNT SINAI, priority 2023, published 2026)
